{
  "source": "patent US20100075917A1",
  "about": "“THIONUCLEOSIDES AND PHARMACEUTICAL APPLICATIONS” (priority 2006, published 2010)",
  "key": {"human CEM cells": {"system": "human CEM cells", "experiment": "Cytotoxicity (MTT) on CEM cells", "assay_type": "cell-based", "conditions": "Homo sapiens, CCRF-CEM, Tables 4 and 6, CEM cells; some values 'then plateau'", "method": "The cytotoxic effect of a compound is studied on human CEM cells and MCF-7 mammary carcinoma cells that are or are not resistant to gemcitabine, which is an anticancer nucleoside used in chemotherapy.\nThe cytotoxicity (CC50) was estimated by measuring the reduction of 3-(4,5-dimethylthiazol-2-yl)-2,5-diphenyltetrazolium bromide (MTT), which is converted into insoluble violet formazan. To do this, 100 000 cells (human CEM-SS or MCF-7 lines) are inoculated per well in 100 μl of culture medium, in 96-well microtitration plates. After 24 hours, the test products are added in 100 μl and incubation is continued for 48 to 72 hours. MIT is then added in a proportion of 20 μl of a solution at 5 mg/ml in PBS. Three hours later, 100 μl of a DMF/acetic acid/HCl/SDS (sodium dodecyl sulfate) solution are added. After 3 hours at 37° C., the absorbance of the formazan is measured at 590 nm and compared with that of the untreated control."}, "[1]": {"system": "L1210/0 murine leukemia cells", "experiment": "Cytotoxic effect on L1210/0 cells", "assay_type": "cell-based", "conditions": "Tables 5 and 7, L1210/0 cells"}, "[2]": {"system": "FM3A/0 murine mammary carcinoma cells", "experiment": "Cytotoxic effect on FM3A/0 cells", "assay_type": "cell-based", "parameters": "unit not given beside the values", "conditions": "Tables 5 and 7, FM3A/0 cells"}, "human Molt4/C8 cells": {"system": "human Molt4/C8 cells", "experiment": "Cytotoxic effect on Molt4/C8 cells", "assay_type": "cell-based", "conditions": "Tables 5 and 7, Molt4/C8 cells"}, "human CEM T4 lymphocytes": {"system": "human CEM T4 lymphocytes", "experiment": "Cytotoxic effect on CEM T4 lymphocytes", "assay_type": "cell-based", "parameters": "unit not given beside the values", "conditions": "Tables 5 and 7, CEM cells"}, "HeLa cells": {"system": "HeLa cells", "experiment": "Cytotoxic effect on HeLa cells", "assay_type": "cell-based", "parameters": "unit not given beside the values", "conditions": "Tables 5 and 7, HeLa cells"}, "HIV-1": {"system": "HIV-1", "experiment": "Anti-HIV-1 effect in CEM cells", "assay_type": "cell-based", "conditions": "Human immunodeficiency virus 1, CCRF-CEM, read-out: EC50 HIV-1", "method": "(§1) The evaluation test is described in Roy, B.; Chambert, S.; Lepoivre M.; Aubertin, A.-M.; Balzarini, J.; Décout, J.-L., Deoxyribonucleoside 2′- or 3′-mixed disulfides: prodrugs to target ribonucleotide reductase and/or to inhibit HIV reverse transcription. J. Med. Chem. 2003, 46, 2565-2568.\n(§2) The toxicity and the antiviral activities were measured at different concentrations, and their evolution as a function of the concentration makes it possible to evaluate: • the concentration at which 50% of the cells are dead in the absence of virus (CC 50) for each of the test compounds, from the change in absorbance at 540 nm of formazan as a function of the concentration of test compound, • the concentration of compound that leads to a 50% reduction in the activity of viral reverse transcriptase (EC 50). This concentration is determined from the curve representing the change in the percentage of “remaining reverse transcriptase” activity (defined as being the ratio of the activity of the reverse transcriptase in the presence of the test compound to that of the untreated cells) as a function of the concentration of test compound.\n(§3) EC50: concentration required to afford 50% protection to the CEM cells against the cytopathogenicity of HIV;"}, "HIV-2 [3]": {"system": "HIV-2", "experiment": "Anti-HIV-2 effect in CEM cells", "assay_type": "cell-based", "conditions": "Human immunodeficiency virus 2, CCRF-CEM, CEM cells, read-out: EC50 HIV-2", "method": "as §1, §2, §3"}, "HIV-2 [4]": {"system": "HIV-2", "experiment": "Anti-HIV-2 effect in CEM/TK− cells", "assay_type": "cell-based", "conditions": "Human immunodeficiency virus 2, CEM-TK(-); Third Series; CEM cells having no thymidine kinase activity", "method": "as §1, §2, §3\n• Effect in CEM not expressing thymidine kinase activity (CEM/TK^−, cells having no thymidine kinase activity)."}, "CEM cells": {"system": "CEM cells", "experiment": "Cytotoxic concentration in CEM cells (antiviral tests)", "assay_type": "cell-based, human", "conditions": "First and Second Series, second table; viability of CEM cells", "method": "as §2\nCC50: cytotoxic concentration or concentration required to reduce the viability of the CEM cells by 50%."}, "[5]": {"conditions": "First and Second Series, second table"}},
  "note": "Like-named read-outs stand apart in the source and are kept apart here.",
  "data": [
    {"compound": "Cc1cn([C@H]2C[C@H](SSC(Cl)(Cl)Cl)[C@@H](CO)O2)c(=O)[nH]c1=O", "note": "[Compound 22, 3′-deoxythymidin-3′-yl trichloromethyl disulfide]", "values": [
      {"measurement": "EC50", "setting": "human CEM cells", "result": 21, "unit": "µM"},
      {"measurement": "cytotoxic effect, L1210/0", "setting": "[1]", "result": "45 ± 1"},
      {"measurement": "cytotoxic effect, FM3A/0", "setting": "[2]", "result": "244 ± 49"},
      {"measurement": "cytotoxic effect, Molt4/C8", "setting": "human Molt4/C8 cells", "result": "55 ± 19"},
      {"measurement": "cytotoxic effect, CEM", "setting": "human CEM T4 lymphocytes", "result": "121 ± 18"},
      {"measurement": "cytotoxic effect, HeLa", "setting": "HeLa cells", "result": "39 ± 10"},
      {"measurement": "EC50", "setting": "HIV-1; [5]", "result": 25, "unit": "µM"},
      {"measurement": "EC50", "setting": "HIV-1; Third Series", "result": 20, "unit": "µM"},
      {"measurement": "EC50", "setting": "HIV-2 [3]; [5]", "result": "17.5 ± 3.5", "unit": "µM"},
      {"measurement": "EC50", "setting": "HIV-2 [3]; Third Series", "result": "27.5 ± 3.5", "unit": "µM"},
      {"measurement": "EC50", "setting": "HIV-2 [4]", "result": "22.5 ± 3.5", "unit": "µM"},
      {"measurement": "CC50", "setting": "CEM cells", "result": "103 ± 4", "unit": "µM"}
    ]}
  ]
}
